Data taken from patent US20250326722A1 (SHANGHAI HANSOH BIOMEDICAL CO., LTD., priority 2022, published 2025).

What was measured:
[1] = molecular target: PCSK9 protein (Homo sapiens (Human), UniProt Q8NBP7); assay: Binding experiment: surface plasmon resonance (SPR) binding to PCSK9 protein
Description: • 1. Experimental objective: To detect the action of compounds to bind PCSK9 protein by a conventional surface plasmon resonance (SPR) method.

[2] = molecular target: PCSK9 secreted by HepG2 cells (Homo sapiens (Human), UniProt Q8NBP7); assay: Effect on the concentration of PCSK9 secreted by HepG2 cells (ELISA); type: cell-based; settings: 48 hours incubation, read-out: Inhibitory activity on PCSK9, IC50
Description: • 1. Experimental objective: To detect the inhibitory effect of the compounds on PCSK9. • 2. Experimental instruments and reagents: • 2.1 Instruments:
• CircuLex Human PCSK9 ELISA kit (MBL: CY-8079); • DMEM (Gibco: 31966-021) • FBS (Sigma: S5394) • Compound plate (Thermo: 1353506) • Complete culture medium: DMEM+10% FBS+1×P/S; • Experimental culture medium: DMEM+10% FBS • Cell strain: HepG2 (ATCC: HB-8065)
A self-adhesive seal was applied, the plate was placed on a plate shaker at room temperature, gently shaken, uniformly mixed, and incubated for 1 hour. • 11) The plate was placed on the plate washer, the washing liquid was set to 350 μL per well, and the plate was washed 4 times repeatedly. • 12) 100 μL/well of an HRP-conjugated detection antibody was added, a self-adhesive seal was applied, and the plate was placed on the plate shaker, well mixed uniformly, and incubated for 1 hour. • 13) The plate was placed on the plate washer, the washing liquid was set to 350 μL per well, and the plate was washed 4 times repeatedly. • 14) 100 μL/well of Substrate reagent was added, and the plate was placed in the dark, applied with a self-adhesive seal, placed on the plate shaker, well mixed uniformly, and incubated for 10-20 minutes. • 15) 100 μL/well of Stop solution (1N H2SO4) was added and mixed uniformly. • 16) The optical density (OD) value in each well was measured in sequence at a wavelength of 450 nm by the microplate reader. Detection was carried out within 30 min after the reaction was stopped.
After the OD values were read by the microplate reader, the OD value of the 0-concentration standard in the standard group was subtracted from the OD values of the standards, control group, and samples to obtain the actual OD values for these wells. A standard curve was plotted with Graphpad and the concentration of the sample was calculated. If the dilution was performed during the sample detection, the calculated sample concentration was necessarily multiplied by the corresponding dilution ratio in the final calculation, which was the actual concentration of the sample. Inhibition rate=(actual concentration in control-actual concentration in sample)/actual concentration in control*100. According to the inhibition rates corresponding to the different concentrations, IC50 was derived by Graphpad.

[3] = Pharmacokinetic determination in mice (plasma); type: in vivo, C57BL/6J mice; settings: C57 mice, PO administration, 5 mpk; for AUC(0-inf) / half-life / MRT / Cmax: male, C57BL/6J, mouse, 5 mg/kg; for AUC(0-inf): read-out: Area under the curve AUC0-∞; for half-life: read-out: Half-life t1/2 (converted); for MRT: read-out: Mean residence time MRT; for Cmax: read-out: Plasma concentration Cmax
Experimental: C57BL/6J mice were used as test animals to study the pharmacokinetic behavior of the compounds of the present disclosure in mice (plasma) after oral and intravenous administration.
C57 mice, male, purchased from Shanghai Bk Lab Animal Co., Ltd., with animal production license number (SCXK (Shanghai) 2013-0006 NO.311620400001794).
• Preparation of oral drug: 10% Solutol HS15
10 g of Solutol HS15 solid was weighed, dissolved in 90 mL of pure water, uniformly mixed, stirred, and ultrasonically treated to form a clear solution.
The compound of the present disclosure was weighed and dissolved in this solution, uniformly shaken, and ultrasonically treated for 15 minutes to obtain a colorless clear solution with a concentration of 0.5 mg/mL. • Preparation of intravenous drug: 5% DMSO+10% Solutol HS15+85% PBS […]
3 male C57 mice were fasted overnight and then respectively administered PO at a dose of 5 mg/kg and a volume of 10 mL/kg. […]
Before and after administration of mice, 0.04 mL of blood was collected from the orbit at 0.083 (iv), 0.25, 0.5, 1, 2, 4, 8, and 24 hours, and placed in EDTA-K2 test tubes, which was centrifuged at 6000 rpm at 4° C. for 6 min to separate plasma which was stored at −80° C.; and the […] were fed 4 h after administration.
The final determination results were obtained by using an LCMS/MS method.
The main pharmacokinetic parameters were calculated using WinNonlin 6.1.

Sequence of PCSK9 secreted by HepG2 cells (Q8NBP7 153-692): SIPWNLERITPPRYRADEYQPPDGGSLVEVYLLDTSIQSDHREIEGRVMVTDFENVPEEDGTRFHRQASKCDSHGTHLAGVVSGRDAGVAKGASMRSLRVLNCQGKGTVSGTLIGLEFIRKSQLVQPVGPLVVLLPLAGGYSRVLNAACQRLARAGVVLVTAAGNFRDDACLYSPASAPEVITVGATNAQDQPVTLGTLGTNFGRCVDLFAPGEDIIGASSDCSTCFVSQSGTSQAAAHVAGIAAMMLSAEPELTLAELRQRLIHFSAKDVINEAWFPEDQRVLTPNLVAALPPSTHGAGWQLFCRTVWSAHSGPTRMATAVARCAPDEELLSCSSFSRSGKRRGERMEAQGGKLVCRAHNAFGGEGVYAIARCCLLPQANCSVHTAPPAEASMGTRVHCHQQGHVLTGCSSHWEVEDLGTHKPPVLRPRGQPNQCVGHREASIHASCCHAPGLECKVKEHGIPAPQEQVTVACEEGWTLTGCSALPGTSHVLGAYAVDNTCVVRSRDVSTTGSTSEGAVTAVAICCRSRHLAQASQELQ
Sequence of PCSK9 secreted by HepG2 cells (Q8NBP7 31-152 partner): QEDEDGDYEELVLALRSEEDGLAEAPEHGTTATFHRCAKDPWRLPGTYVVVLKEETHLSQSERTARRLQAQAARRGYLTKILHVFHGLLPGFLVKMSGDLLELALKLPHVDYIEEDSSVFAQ
Sequence of PCSK9 protein (Q8NBP7 153-692): as the sequence (Q8NBP7 153-692) above

Kd [1] [nM] | IC50 [2] [nM] | Time to peak tmax [3] [h] | SMILES | also measured
1.2 | 9900 |  | Cc1ccn2nc(N[C@H]3CC[C@H](Nc4ccc(N5Cc6cccnc6C5=O)cn4)C3)nc2c1 [Example 130, 6-(6-(((1S,3S)-3-((7-methyl-[1,2,4]triazolo[1,5-a]pyridin-2-yl)amino)cyclopentyl)amino)pyridin-3-yl)-5,6-dihydro-7H-pyrrolo[3,4-b]pyridin-7-one] | 
1.1 | 12000 |  | O=C1c2ncncc2CN1c1ccc(N[C@H]2CC[C@H](Nc3ncc(OC(F)F)cn3)C2)nc1 [Example 132, 6-(6-(((1S,3S)-3-((5-(difluoromethoxy)pyrimidin-2-yl)amino)cyclopentyl)amino)pyridin-3-yl)-5,6-dihydro-7H-pyrrolo[3,4-d]pyrimidin-7-one] | 
 | 1100 | 0.25 | O=C1c2cccnc2CN1c1ccc(N[C@H]2CC[C@H](Nc3ncc(C(F)(F)F)cn3)C2)nc1 [Example 133, 6-(6-(((1S,3S)-3-((5-(trifluoromethyl)pyrimidin-2-yl)amino)cyclopentyl)amino)-3-yl)-6,7-dihydro-5H-pyrrolo[3,4-b]pyridin-5-one] | AUC(0-inf) [3]: 36800 ng·h/mL; half-life [3]: 6.7 h; MRT [3]: 6.2 h; Cmax [3]: 7530 ng/mL
4.9 | 22300 |  | O=c1ccccn1-c1ccc(N[C@H]2CC[C@H](Nc3nc4cc(C5CC5)ccn4n3)C2)nc1 [Example 135, 6′-(((1S,3S)-3-((7-cyclopropyl-[1,2,4]triazolo[1,5-a]pyridin-2-yl)amino)cyclopentyl)amino)-2H-[1,3′-bipyridinyl]-2-one] | 
 | 2400 | 2 | O=C1c2ncccc2CN1c1ccc(N[C@H]2CC[C@H](Nc3ncc(OC(F)(F)F)cn3)C2)nc1 [Example 142, 6-(6-(((1S,3S)-3-((5-(trifluoromethoxy)pyrimidin-2-yl)amino)cyclopentyl)amino)pyridin-3-yl)-5,6-dihydro-7H-pyrrolo[3,4-b]pyridin-7-one] | AUC(0-inf) [3]: 50800 ng·h/mL; half-life [3]: 6.5 h; MRT [3]: 8.1 h; Cmax [3]: 5930 ng/mL
2.5 |  |  | CC1(C)c2cccnc2C(=O)N1c1ccc(N[C@H]2CC[C@H](Nc3ncc(C(F)(F)F)nn3)C2)nc1 [Example 146, 5,5-Dimethyl-6-(6-(((1S,3S)-3-((6-(trifluoromethyl)-1,2,4-triazin-3-yl)amino)cyclopentyl)amino)pyridin-3-yl)-5,6-dihydro-7H-pyrrolo[3,4-b]pyridin-7-one] | 
 | 1500 | 2 | O=C1c2cc(C(F)(F)F)ncc2CN1c1ccc(N[C@H]2CC[C@H](Nc3ncc(C(F)(F)F)nn3)C2)nc1 [Example 152, 6-(Trifluoromethyl)-2-(6-(((1S,3S)-3-((6-(trifluoromethyl)-1,2,4-triazin-3-yl)amino)cyclopentyl)amino)pyridin-3-yl)-2,3-dihydro-1H-pyrrolo[3,4-c]pyridin-1-one] | AUC(0-inf) [3]: 65500 ng·h/mL; half-life [3]: 9.6 h; MRT [3]: 12.1 h; Cmax [3]: 5290 ng/mL
 | 26400 | 2 | O=C1c2ncc(F)cc2CN1c1ccc(N[C@H]2CC[C@H](Nc3ncc(C(F)(F)F)nn3)C2)nc1 [Example 153, 3-Fluoro-6-(6-(((1S,3S)-3-((6-(trifluoromethyl)-1,2,4-triazin-3-yl)amino)cyclopentyl)amino)pyridin-3-yl)-5,6-dihydro-7H-pyrrolo[3,4-b]pyridin-7-one] | AUC(0-inf) [3]: 34600 ng·h/mL; half-life [3]: 2.9 h; MRT [3]: 4.4 h; Cmax [3]: 6310 ng/mL
2.6 | 17600 |  | O=C1c2c(cccc2C(F)(F)F)CN1c1ccc(N[C@H]2CC[C@H](Nc3nc4cc(F)ccn4n3)C2)nc1 [Example 161] | 
3 | 22800 |  | O=C1c2cccc(C(F)(F)F)c2CN1c1ccc(N[C@H]2CC[C@H](Nc3nc4cc(F)ccn4n3)C2)nc1 [Example 162] | 

Further lines, the compound ahead of its results:

SMILES | Kd [1] [nM] | IC50 [2] [nM] | Time to peak tmax [3] [h] | also measured
CC1(C)c2cccnc2C(=O)N1c1ccc(N[C@H]2CC[C@H](Nc3ncc(OC(F)F)cn3)C2)nc1 [Example 93, 6-(6-(((1S,3S)-3-((5-(difluoromethoxy)pyrimidin-2-yl)amino)cyclopentyl)amino)pyridin-3-yl)-5,5-dimethyl-5,6-dihydro-7H-pyrrolo[3,4-b]pyridin-7-one] | 2.9 |  |  | 
O=c1ccccn1-c1ccc(N[C@H]2CC[C@H](Nc3nc4cc(Cl)ccn4n3)C2)nc1 [Example 112, 6′-(((1S,3S)-3-((7-chloro-[1,2,4]triazolo[1,5-a]pyridin-2-yl)amino)cyclopentyl)amino)-2H-[1,3′-bipyridinyl]-2-one] | 2.7 |  |  | 
O=c1ccccn1-c1ccc(N[C@H]2CC[C@H](Nc3nc4cc(C(F)(F)F)ccn4n3)C2)nc1 [Example 113, 6′-(((1S,3S)-3-((7-(trifluoromethyl)-[1,2,4]triazolo[1,5-a]pyridin-2-yl)amino)cyclopentyl)amino)-2H-[1,3′-bipyridinyl]-2-one] | 4.2 | 14000 |  | 
Cc1nccc2c1CN(c1ccc(N[C@H]3CC[C@H](Nc4ncc(OC(F)F)cn4)C3)nc1)C2=O [Example 115, 2-(6-(((1S,3S)-3-((5-(difluoromethoxy)pyrimidin-2-yl)amino)cyclopentyl)amino)-3-yl)-4-methyl-2,3-dihydro-1H-pyrrolo[3,4-c]pyridin-1-one] | 3.1 | 3800 | 0.5 | AUC(0-inf) [3]: 20900 ng·h/mL; half-life [3]: 5.8 h; MRT [3]: 5.3 h; Cmax [3]: 4290 ng/mL
O=C1c2cccnc2CN1c1ccc(N[C@H]2CC[C@H](Nc3ncc(OCC(F)(F)F)cn3)C2)nc1 [Example 124] | 0.8 | 16800 |  | 
O=C1c2ncccc2CN1c1ccc(N[C@H]2CC[C@H](Nc3ncc(OCC(F)(F)F)cn3)C2)nc1 [Example 125] |  | 17300 | 1 | Area under the curve AUC0-∞ [3]: 24298 ng·h/mL; Half-life t1/2 [3]: 7.7 h; Mean residence time MRT [3]: 4.0 h; Plasma concentration Cmax [3]: 8545 ng/mL
O=C1c2ncccc2CN1c1ccc(N[C@H]2CC[C@H](Nc3ncc(C4CC4)nn3)C2)nc1 [Example 126, 6-(6-(((1S,3S)-3-((6-cyclopropyl-1,2,4-triazin-3-yl)amino)cyclopentyl)amino)pyridin-3-yl)-5,6-dihydro-7H-pyrrolo[3,4-b]pyridin-7-one] | 1.2 | 500 |  | 
O=C1c2ncccc2CN1c1ccc(N[C@H]2CC[C@H](Nc3ncc(C4CC4)cn3)C2)nc1 [Example 127] | 1.8 | 11800 |  | 
O=C1c2cccnc2CN1c1ccc(N[C@H]2CC[C@H](Nc3ncc(C4CC4)cn3)C2)nc1 [Example 128] |  | 7900 | 0.5 | Area under the curve AUC0-∞ [3]: 10873 ng·h/mL; Half-life t1/2 [3]: 4.0 h; Mean residence time MRT [3]: 3.7 h; Plasma concentration Cmax [3]: 4307 ng/mL
